As a reminder, the MIC is the lowest concentration that inhibits growth of the organism.

Data on 1 compound can be found in patent US3985738A, “7-(D-. alpha.-Hydroxy-2-arylacetamido)-3-(tetrazolo-[4,5-b]pyridazin-6-ylthiomet hyl)-3-cephem-4-carboxylic acids” (Bristol-Myers Company, priority 1974, dated 1976).

In brackets after ≈: the same amount, converted by molar mass. A value given as a limit tells only on which side of the number the result lay.

Test in all cases: In vitro antibacterial activity, tube dilution method (Nutrient Broth)
What all share (format): cell-based

For one experiment, the system named is Sal. enteritidis A9531. The conditions noted are these: Salmonella enterica. An excerpt:
(§1) In vitro Antibacterial Activity of BB-S266 by Tube Dilution Method (Nutrient Broth).

The next experiment deals with E. coli Juhl A15119. The conditions noted are these: Escherichia coli, JUHLA15119.
Text: as §1

Another experiment has as its system S. aureus Smith. The conditions noted are these: Staphylococcus aureus.
Text: as §1

For the next experiment, the system named is Pr. mirabilis A9900. Particulars: Proteus mirabilis.
Text: as §1

Another experiment has as its system Kl. pneumoniae A9977. The conditions noted are these: Klebsiella pneumoniae.
Text: as §1

Another experiment concerns Pr. morganii A15153. Particulars: Morganella morganii.
Text: as §1

Another experiment relates to St. pyogenes A9604. The conditions noted are these: Streptococcus pyogenes.
Text: as §1

Another experiment deals with S. aureus BX-1633. Particulars: Staphylococcus aureus, BX1633.
Text: as §1

In another experiment the test system is E. coli NIHJ. Particulars: Escherichia coli.
Text: as §1

A further experiment concerns Ps. aeruginosa A9843. The conditions noted are these: Pseudomonas aeruginosa.
Text: as §1

A further experiment relates to Mycobacterium 607.
Text: as §1

A further experiment relates to Ser. marcescens A20019. Particulars: Serratia marcescens.
Text: as §1

In the next experiment the test system is E. coli ATCC 8739. Particulars: Escherichia coli, ATCC8739.
Text: as §1

In a further experiment the test system is S. aureus Russel. Particulars: Staphylococcus aureus.
Text: as §1

The next experiment relates to Dip. pneumoniae. Particulars: Streptococcus pneumoniae.
Text: as §1

Another experiment concerns Kl. pneumoniae A15130. Particulars: Klebsiella pneumoniae.
Text: as §1

Turning to `O=C(O)C1=C(CSc2ccc3nnnn3n2)CS[C@@H]2C(NC(=O)[C@H](O)c3ccccc3)C(=O)N12` (stereo partly drawn) [BB-S266, 7-(D-α-HYDROXY-α-PHENYLACETAMIDO)-3-(TETRAZOLO[4,5-B]PYRIDAZIN-6-YLTHIOMETHYL)-3-CEPHEM-4-CARBOXYLIC ACID], the MIC in the experiment with Sal. enteritidis A9531 came to 0.4 µg/mL (≈ 0.801 µM); in the experiment with E. coli Juhl A15119, 3.1 µg/mL (≈ 6.21 µM); in the experiment with S. aureus Smith (S. aureus Smith), 0.1 µg/mL (≈ 0.2 µM); in the experiment on S. aureus Smith (S. aureus Smith + 50% serum) it was 0.2 µg/mL; against Pr. mirabilis A9900 it was 6.3 µg/mL (≈ 12.6 µM); with Kl. pneumoniae A9977 it was 3.1 µg/mL (≈ 6.21 µM). Also, the MIC against Pr. morganii A15153 is 50 µg/mL (≈ 100 µM); with St. pyogenes A9604 it was 0.01 µg/mL (≈ 0.02 µM); against S. aureus BX-1633, 0.8 µg/mL (≈ 1.6 µM); in the experiment on E. coli NIHJ, 0.08 µg/mL (≈ 0.16 µM); in the experiment on Ps. aeruginosa A9843, less than 100 µg/mL; in the experiment with Mycobacterium 607, less than 100 µg/mL. Moreover, the minimum inhibitory concentration (MIC) against Ser. marcescens A20019 was found to be 100 µg/mL (≈ 200 µM); against E. coli ATCC 8739, 1.6 µg/mL (≈ 3.2 µM); in the experiment with S. aureus Russel, 0.4 µg/mL (≈ 0.801 µM); with Dip. pneumoniae it was 0.01 µg/mL (≈ 0.02 µM); against Kl. pneumoniae A15130, 3.1 µg/mL (≈ 6.21 µM).
